Blank lines part the entries; values can stand above or below the molecule they belong to.
Tests used:
Test in all cases: KINOMEscan competition binding
Details in all cases: compound 10.0 µM
ABL1 (human) = ABL1 (human) (UniProt P00519)
BRSK1 (human) = BRSK1 (human) (UniProt Q8TDC3)
CDK5 (human) = CDK5 (human) (UniProt Q00535)
CDK7 (human) = CDK7 (human) (UniProt P50613)
CSK (human) = CSK (human) (UniProt P41240)
CSNK1D (human) = CSNK1D (human) (UniProt P48730)
DDR1 (human) = DDR1 (human) (UniProt Q08345)
ERBB4 (human) = ERBB4 (human) (UniProt Q15303)
[1] = system: FLT3 (human), P36888 [ITD]
FLT4 (human) = FLT4 (human) (UniProt P35916)
GRK4 (human) = GRK4 (human) (UniProt P32298)
INSR (human) = INSR (human) (UniProt P06213)
LATS1 (human) = LATS1 (human) (UniProt O95835)
LCK (human) = LCK (human) (UniProt P06239)
LIMK1 (human) = LIMK1 (human) (UniProt P53667)
LIMK2 (human) = LIMK2 (human) (UniProt P53671)
MAK (human) = MAK (human) (UniProt P20794)
MAP3K6 (human) = MAP3K6 (human) (UniProt O95382)
MAP3K9 (human) = MAP3K9 (human) (UniProt P80192)
MAP4K3 (human) = MAP4K3 (human) (UniProt Q8IVH8)
MAPK10 (human) = MAPK10 (human) (UniProt P53779)
MAPK12 (human) = MAPK12 (human) (UniProt P53778)
MARK4 (human) = MARK4 (human) (UniProt Q96L34)
MYLK3 (human) = MYLK3 (human) (UniProt Q32MK0)
NTRK2 (human) = NTRK2 (human) (UniProt Q16620)
NTRK3 (human) = NTRK3 (human) (UniProt Q16288)
NUAK2 (human) = NUAK2 (human) (UniProt Q9H093)
PAK3 (human) = PAK3 (human) (UniProt O75914)
[2] = system: PIK3CA (human), P42336 [Q546K]
PLK1 (human) = PLK1 (human) (UniProt P53350)
[3] = system: RET (human), P07949 [V804L]
RPS6KA1 KD2 (human) = RPS6KA1 KD2 (human) (UniProt Q15418)
RPS6KA2 KD1 (human) = RPS6KA2 KD1 (human) (UniProt Q15349)
SIK2 (human) = SIK2 (human) (UniProt Q9H0K1)
TGFBR2 (human) = TGFBR2 (human) (UniProt P37173)
TLK2 (human) = TLK2 (human) (UniProt Q86UE8)
[4] = target: TYK2 JH2 pseudokinase (human) (UniProt P29597)
TYRO3 (human) = TYRO3 (human) (UniProt Q06418)
ULK1 (human) = ULK1 (human) (UniProt O75385)
WEE1 (human) = WEE1 (human) (UniProt P30291)
DYRK2 (human) = DYRK2 (human) (UniProt Q92630)

Chain of MAPK12 (human) (P53778 whole entry, looked up): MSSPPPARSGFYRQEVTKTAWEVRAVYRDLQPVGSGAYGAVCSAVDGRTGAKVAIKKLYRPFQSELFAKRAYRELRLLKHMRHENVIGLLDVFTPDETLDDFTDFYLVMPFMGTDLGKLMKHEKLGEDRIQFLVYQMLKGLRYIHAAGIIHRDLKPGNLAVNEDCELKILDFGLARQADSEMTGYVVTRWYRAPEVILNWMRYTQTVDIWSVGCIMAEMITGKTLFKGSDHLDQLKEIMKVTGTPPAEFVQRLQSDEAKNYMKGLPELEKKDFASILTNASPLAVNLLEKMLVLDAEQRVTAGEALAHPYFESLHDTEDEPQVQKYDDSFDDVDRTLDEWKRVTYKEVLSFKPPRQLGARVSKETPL
Chain of DDR1 (human) (Q08345 whole entry, looked up): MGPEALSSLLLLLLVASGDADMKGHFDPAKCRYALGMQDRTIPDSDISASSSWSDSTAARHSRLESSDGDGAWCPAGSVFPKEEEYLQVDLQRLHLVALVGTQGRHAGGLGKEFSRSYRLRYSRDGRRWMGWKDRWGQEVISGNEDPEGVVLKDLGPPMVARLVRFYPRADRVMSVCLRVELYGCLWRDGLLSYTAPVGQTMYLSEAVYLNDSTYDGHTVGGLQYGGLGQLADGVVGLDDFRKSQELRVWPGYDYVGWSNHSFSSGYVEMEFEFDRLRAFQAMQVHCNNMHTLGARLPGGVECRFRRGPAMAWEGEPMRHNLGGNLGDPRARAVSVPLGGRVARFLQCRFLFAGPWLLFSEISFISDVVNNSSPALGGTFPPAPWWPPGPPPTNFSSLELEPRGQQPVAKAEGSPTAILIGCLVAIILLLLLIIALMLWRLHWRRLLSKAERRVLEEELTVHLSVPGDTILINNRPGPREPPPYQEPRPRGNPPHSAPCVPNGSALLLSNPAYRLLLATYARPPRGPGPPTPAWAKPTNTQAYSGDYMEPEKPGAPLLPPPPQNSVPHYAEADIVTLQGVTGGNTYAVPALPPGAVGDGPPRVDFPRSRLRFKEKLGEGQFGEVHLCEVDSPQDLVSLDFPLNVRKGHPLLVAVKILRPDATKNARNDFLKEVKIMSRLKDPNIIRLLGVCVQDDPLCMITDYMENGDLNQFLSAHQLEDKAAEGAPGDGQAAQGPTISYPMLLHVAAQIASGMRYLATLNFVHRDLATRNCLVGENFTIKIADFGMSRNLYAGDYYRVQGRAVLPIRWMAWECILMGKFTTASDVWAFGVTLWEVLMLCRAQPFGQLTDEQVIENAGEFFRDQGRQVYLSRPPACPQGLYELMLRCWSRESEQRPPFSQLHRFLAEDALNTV
Chain of MARK4 (human) (Q96L34 whole entry, looked up): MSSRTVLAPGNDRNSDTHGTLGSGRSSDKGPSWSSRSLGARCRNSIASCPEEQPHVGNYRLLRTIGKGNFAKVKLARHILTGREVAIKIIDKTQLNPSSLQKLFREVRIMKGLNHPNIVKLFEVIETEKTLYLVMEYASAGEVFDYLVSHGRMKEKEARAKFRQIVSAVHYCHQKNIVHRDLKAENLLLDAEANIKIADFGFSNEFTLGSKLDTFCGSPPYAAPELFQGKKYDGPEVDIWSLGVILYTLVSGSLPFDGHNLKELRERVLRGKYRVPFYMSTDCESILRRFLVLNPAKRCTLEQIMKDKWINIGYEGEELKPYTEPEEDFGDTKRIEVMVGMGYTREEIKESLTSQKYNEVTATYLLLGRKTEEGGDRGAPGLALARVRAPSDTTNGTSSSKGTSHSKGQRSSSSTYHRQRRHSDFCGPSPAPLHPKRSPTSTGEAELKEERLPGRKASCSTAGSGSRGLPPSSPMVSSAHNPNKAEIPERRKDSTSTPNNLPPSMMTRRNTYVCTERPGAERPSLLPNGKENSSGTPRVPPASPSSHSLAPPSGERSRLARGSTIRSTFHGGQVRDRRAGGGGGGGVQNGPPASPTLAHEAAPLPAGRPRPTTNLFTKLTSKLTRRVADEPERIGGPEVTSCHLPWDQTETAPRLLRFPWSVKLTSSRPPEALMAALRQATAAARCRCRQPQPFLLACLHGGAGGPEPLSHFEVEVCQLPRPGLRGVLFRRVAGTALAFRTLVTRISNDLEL
Chain of MYLK3 (human) (Q32MK0 whole entry, looked up): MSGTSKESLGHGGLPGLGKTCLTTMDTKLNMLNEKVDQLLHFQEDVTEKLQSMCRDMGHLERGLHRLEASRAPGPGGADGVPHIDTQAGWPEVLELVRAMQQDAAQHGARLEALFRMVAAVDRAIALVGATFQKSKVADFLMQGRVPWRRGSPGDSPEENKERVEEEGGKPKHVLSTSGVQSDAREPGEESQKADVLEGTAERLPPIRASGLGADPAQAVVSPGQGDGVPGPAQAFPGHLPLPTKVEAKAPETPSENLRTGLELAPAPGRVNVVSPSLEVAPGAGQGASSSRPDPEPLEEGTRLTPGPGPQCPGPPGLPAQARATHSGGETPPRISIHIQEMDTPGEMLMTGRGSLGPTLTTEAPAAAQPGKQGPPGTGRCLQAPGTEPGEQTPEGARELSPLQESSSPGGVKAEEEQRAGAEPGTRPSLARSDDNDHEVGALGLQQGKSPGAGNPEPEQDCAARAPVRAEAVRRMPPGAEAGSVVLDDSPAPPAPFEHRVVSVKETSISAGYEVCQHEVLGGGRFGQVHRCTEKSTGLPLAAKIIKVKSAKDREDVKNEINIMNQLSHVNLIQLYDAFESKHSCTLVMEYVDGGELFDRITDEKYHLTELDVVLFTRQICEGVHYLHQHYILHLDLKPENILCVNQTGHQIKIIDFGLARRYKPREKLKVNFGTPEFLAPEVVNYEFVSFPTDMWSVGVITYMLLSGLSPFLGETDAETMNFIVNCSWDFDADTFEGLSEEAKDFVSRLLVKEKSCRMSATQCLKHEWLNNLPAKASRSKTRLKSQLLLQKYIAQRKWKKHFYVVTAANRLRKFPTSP
Chain of INSR (human) (P06213 whole entry, looked up): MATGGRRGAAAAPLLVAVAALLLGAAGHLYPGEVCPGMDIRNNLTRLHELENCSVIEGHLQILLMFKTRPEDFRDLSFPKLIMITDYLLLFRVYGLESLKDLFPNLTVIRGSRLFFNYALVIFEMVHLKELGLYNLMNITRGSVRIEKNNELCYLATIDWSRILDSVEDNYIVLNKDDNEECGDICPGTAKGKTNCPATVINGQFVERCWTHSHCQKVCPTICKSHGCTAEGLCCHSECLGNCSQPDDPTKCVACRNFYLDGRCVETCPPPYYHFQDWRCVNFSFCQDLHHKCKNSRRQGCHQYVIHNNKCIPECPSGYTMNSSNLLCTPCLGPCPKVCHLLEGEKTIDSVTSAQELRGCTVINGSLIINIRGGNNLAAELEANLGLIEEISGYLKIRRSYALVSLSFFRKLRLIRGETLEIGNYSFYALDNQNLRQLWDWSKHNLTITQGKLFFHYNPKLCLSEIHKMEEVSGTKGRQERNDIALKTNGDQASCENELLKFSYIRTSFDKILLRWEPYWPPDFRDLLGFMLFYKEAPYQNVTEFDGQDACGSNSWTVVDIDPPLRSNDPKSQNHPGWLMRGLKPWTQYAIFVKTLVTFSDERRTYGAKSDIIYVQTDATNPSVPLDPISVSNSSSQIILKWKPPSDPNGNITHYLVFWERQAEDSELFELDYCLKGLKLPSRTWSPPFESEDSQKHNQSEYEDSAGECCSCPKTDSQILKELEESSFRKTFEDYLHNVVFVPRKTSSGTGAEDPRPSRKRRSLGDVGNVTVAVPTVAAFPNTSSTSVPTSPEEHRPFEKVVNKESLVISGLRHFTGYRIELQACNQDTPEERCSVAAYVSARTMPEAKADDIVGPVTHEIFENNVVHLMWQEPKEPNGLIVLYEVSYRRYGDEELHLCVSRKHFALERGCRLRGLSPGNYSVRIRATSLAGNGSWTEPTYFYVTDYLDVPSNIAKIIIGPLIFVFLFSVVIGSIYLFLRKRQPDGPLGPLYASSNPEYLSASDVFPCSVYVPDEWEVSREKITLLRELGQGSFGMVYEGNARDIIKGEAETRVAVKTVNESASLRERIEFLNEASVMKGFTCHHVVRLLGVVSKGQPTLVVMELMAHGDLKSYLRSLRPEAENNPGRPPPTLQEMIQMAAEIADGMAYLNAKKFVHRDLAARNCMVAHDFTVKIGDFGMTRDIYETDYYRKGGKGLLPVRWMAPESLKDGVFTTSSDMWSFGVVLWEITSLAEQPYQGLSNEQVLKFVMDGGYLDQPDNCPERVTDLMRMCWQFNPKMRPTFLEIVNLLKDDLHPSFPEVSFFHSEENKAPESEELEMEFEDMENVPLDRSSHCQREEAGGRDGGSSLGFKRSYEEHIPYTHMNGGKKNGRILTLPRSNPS
Chain of WEE1 (human) (P30291 whole entry, looked up): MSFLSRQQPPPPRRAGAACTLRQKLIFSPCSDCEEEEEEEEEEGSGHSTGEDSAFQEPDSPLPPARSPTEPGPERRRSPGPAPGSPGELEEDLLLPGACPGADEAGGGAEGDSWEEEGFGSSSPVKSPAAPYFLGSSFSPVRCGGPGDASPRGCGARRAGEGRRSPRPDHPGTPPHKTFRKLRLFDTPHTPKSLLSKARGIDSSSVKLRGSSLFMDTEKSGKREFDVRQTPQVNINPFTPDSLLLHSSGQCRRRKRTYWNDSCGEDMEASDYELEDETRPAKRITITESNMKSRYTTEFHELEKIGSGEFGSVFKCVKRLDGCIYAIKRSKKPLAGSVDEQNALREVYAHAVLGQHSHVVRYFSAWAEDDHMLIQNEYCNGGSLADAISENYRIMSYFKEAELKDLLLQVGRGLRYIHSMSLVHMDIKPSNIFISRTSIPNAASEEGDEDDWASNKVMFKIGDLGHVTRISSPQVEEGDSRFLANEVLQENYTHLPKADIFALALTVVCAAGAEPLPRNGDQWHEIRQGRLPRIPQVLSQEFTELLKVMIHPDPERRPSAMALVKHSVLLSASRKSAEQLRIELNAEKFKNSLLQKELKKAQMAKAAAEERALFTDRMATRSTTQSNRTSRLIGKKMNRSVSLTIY

kinase still bound, per cent of control (ABL1 (human)): 2.3%
kinase still bound, per cent of control (BRSK1 (human)): 1.8%
kinase still bound, per cent of control (CDK5 (human)): 9.5%
kinase still bound, per cent of control (CDK7 (human)): 12%
kinase still bound, per cent of control (CSK (human)): 56%
kinase still bound, per cent of control (CSNK1D (human)): 21%
kinase still bound, per cent of control (DDR1 (human)): 55%
kinase still bound, per cent of control (ERBB4 (human)): 46%
kinase still bound, per cent of control [1]: 0.15%
kinase still bound, per cent of control (FLT4 (human)): 2.5%
kinase still bound, per cent of control (GRK4 (human)): 1.8%
kinase still bound, per cent of control (INSR (human)): 72%
kinase still bound, per cent of control (LATS1 (human)): 70%
kinase still bound, per cent of control (LCK (human)): 4.8%
kinase still bound, per cent of control (LIMK1 (human)): 59%
kinase still bound, per cent of control (LIMK2 (human)): 92%
kinase still bound, per cent of control (MAK (human)): 0.8%
kinase still bound, per cent of control (MAP3K6 (human)): 41%
kinase still bound, per cent of control (MAP3K9 (human)): 3.4%
kinase still bound, per cent of control (MAP4K3 (human)): 24%
kinase still bound, per cent of control (MAPK10 (human)): 12%
kinase still bound, per cent of control (MAPK12 (human)): 55%
kinase still bound, per cent of control (MARK4 (human)): 35%
kinase still bound, per cent of control (MYLK3 (human)): 0.4%
kinase still bound, per cent of control (NTRK2 (human)): 7.2%
kinase still bound, per cent of control (NTRK3 (human)): 16%
kinase still bound, per cent of control (NUAK2 (human)): 39%
kinase still bound, per cent of control (PAK3 (human)): 7.7%
kinase still bound, per cent of control [2]: 100%
kinase still bound, per cent of control (PLK1 (human)): 100%
kinase still bound, per cent of control [3]: 0%
kinase still bound, per cent of control (RPS6KA1 KD2 (human)): 47%
kinase still bound, per cent of control (RPS6KA2 KD1 (human)): 2.2%
kinase still bound, per cent of control (SIK2 (human)): 8.2%
kinase still bound, per cent of control (TGFBR2 (human)): 58%
kinase still bound, per cent of control (TLK2 (human)): 56%
kinase still bound, per cent of control [4]: 28%
kinase still bound, per cent of control (TYRO3 (human)): 91%
kinase still bound, per cent of control (ULK1 (human)): 7.3%
kinase still bound, per cent of control (WEE1 (human)): 87%
Compound: O=C1Nc2cc(Br)ccc2/C1=C1/Nc2ccccc2/C1=N\O

kinase still bound, per cent of control (ABL1 (human)): 100%
kinase still bound, per cent of control (BRSK1 (human)): 100%
kinase still bound, per cent of control (CDK5 (human)): 72%
kinase still bound, per cent of control (CDK7 (human)): 100%
kinase still bound, per cent of control (CSK (human)): 100%
kinase still bound, per cent of control (DDR1 (human)): 100%
kinase still bound, per cent of control (DYRK2 (human)): 68%
kinase still bound, per cent of control (ERBB4 (human)): 100%
kinase still bound, per cent of control (FLT4 (human)): 100%
kinase still bound, per cent of control (GRK4 (human)): 100%
kinase still bound, per cent of control (LATS1 (human)): 100%
kinase still bound, per cent of control (LCK (human)): 100%
kinase still bound, per cent of control (LIMK1 (human)): 100%
kinase still bound, per cent of control (LIMK2 (human)): 100%
kinase still bound, per cent of control (MAK (human)): 94%
kinase still bound, per cent of control (MAP3K6 (human)): 85%
kinase still bound, per cent of control (MAP4K3 (human)): 90%
kinase still bound, per cent of control (MAPK10 (human)): 53%
kinase still bound, per cent of control (MARK4 (human)): 100%
kinase still bound, per cent of control (MYLK3 (human)): 52%
kinase still bound, per cent of control (NTRK2 (human)): 81%
kinase still bound, per cent of control (NTRK3 (human)): 85%
kinase still bound, per cent of control (NUAK2 (human)): 93%
kinase still bound, per cent of control (PAK3 (human)): 90%
kinase still bound, per cent of control [2]: 90%
kinase still bound, per cent of control (PLK1 (human)): 100%
kinase still bound, per cent of control [3]: 100%
kinase still bound, per cent of control (RPS6KA1 KD2 (human)): 100%
kinase still bound, per cent of control (RPS6KA2 KD1 (human)): 100%
kinase still bound, per cent of control (SIK2 (human)): 80%
kinase still bound, per cent of control (TGFBR2 (human)): 70%
kinase still bound, per cent of control (TLK2 (human)): 93%
kinase still bound, per cent of control [4]: 66%
kinase still bound, per cent of control (TYRO3 (human)): 93%
kinase still bound, per cent of control (ULK1 (human)): 100%
kinase still bound, per cent of control (WEE1 (human)): 80%
Compound: COc1ccc(CNC(=O)Nc2ncc([N+](=O)[O-])s2)cc1

kinase still bound, per cent of control (ABL1 (human)): 100%
kinase still bound, per cent of control (BRSK1 (human)): 90%
kinase still bound, per cent of control (CDK5 (human)): 47%
kinase still bound, per cent of control (CDK7 (human)): 43%
kinase still bound, per cent of control (CSK (human)): 100%
kinase still bound, per cent of control (CSNK1D (human)): 94%
kinase still bound, per cent of control (DDR1 (human)): 100%
kinase still bound, per cent of control (DYRK2 (human)): 83%
kinase still bound, per cent of control (ERBB4 (human)): 100%
kinase still bound, per cent of control [1]: 62%
kinase still bound, per cent of control (FLT4 (human)): 97%
kinase still bound, per cent of control (GRK4 (human)): 100%
kinase still bound, per cent of control (INSR (human)): 91%
kinase still bound, per cent of control (LATS1 (human)): 100%
kinase still bound, per cent of control (LCK (human)): 96%
kinase still bound, per cent of control (LIMK1 (human)): 93%
kinase still bound, per cent of control (LIMK2 (human)): 96%
kinase still bound, per cent of control (MAK (human)): 20%
kinase still bound, per cent of control (MAP3K6 (human)): 64%
kinase still bound, per cent of control (MAP3K9 (human)): 89%
kinase still bound, per cent of control (MAP4K3 (human)): 70%
kinase still bound, per cent of control (MAPK10 (human)): 62%
kinase still bound, per cent of control (MAPK12 (human)): 100%
kinase still bound, per cent of control (MARK4 (human)): 100%
kinase still bound, per cent of control (MYLK3 (human)): 90%
kinase still bound, per cent of control (NTRK2 (human)): 70%
kinase still bound, per cent of control (NTRK3 (human)): 62%
kinase still bound, per cent of control (NUAK2 (human)): 100%
kinase still bound, per cent of control (PAK3 (human)): 86%
kinase still bound, per cent of control [2]: 90%
kinase still bound, per cent of control (PLK1 (human)): 85%
kinase still bound, per cent of control [3]: 100%
kinase still bound, per cent of control (RPS6KA1 KD2 (human)): 53%
kinase still bound, per cent of control (RPS6KA2 KD1 (human)): 73%
kinase still bound, per cent of control (SIK2 (human)): 89%
kinase still bound, per cent of control (TGFBR2 (human)): 100%
kinase still bound, per cent of control (TLK2 (human)): 62%
kinase still bound, per cent of control [4]: 32%
kinase still bound, per cent of control (TYRO3 (human)): 100%
kinase still bound, per cent of control (ULK1 (human)): 96%
kinase still bound, per cent of control (WEE1 (human)): 80%
Compound: Cn1cc(C2=C(c3ccc(Cl)cc3Cl)C(=O)NC2=O)c2ccccc21

kinase still bound, per cent of control (ABL1 (human)): 96%
kinase still bound, per cent of control (BRSK1 (human)): 100%
kinase still bound, per cent of control (CDK5 (human)): 67%
kinase still bound, per cent of control (CDK7 (human)): 64%
kinase still bound, per cent of control (CSK (human)): 100%
kinase still bound, per cent of control (CSNK1D (human)): 81%
kinase still bound, per cent of control (DDR1 (human)): 100%
kinase still bound, per cent of control (DYRK2 (human)): 68%
kinase still bound, per cent of control (ERBB4 (human)): 100%
kinase still bound, per cent of control [1]: 74%
kinase still bound, per cent of control (FLT4 (human)): 100%
kinase still bound, per cent of control (GRK4 (human)): 100%
kinase still bound, per cent of control (INSR (human)): 100%
kinase still bound, per cent of control (LATS1 (human)): 100%
kinase still bound, per cent of control (LCK (human)): 100%
kinase still bound, per cent of control (LIMK1 (human)): 100%
kinase still bound, per cent of control (LIMK2 (human)): 100%
kinase still bound, per cent of control (MAK (human)): 80%
kinase still bound, per cent of control (MAP3K6 (human)): 80%
kinase still bound, per cent of control (MAP3K9 (human)): 55%
kinase still bound, per cent of control (MAP4K3 (human)): 96%
kinase still bound, per cent of control (MAPK10 (human)): 64%
kinase still bound, per cent of control (MAPK12 (human)): 100%
kinase still bound, per cent of control (MARK4 (human)): 100%
kinase still bound, per cent of control (MYLK3 (human)): 78%
kinase still bound, per cent of control (NTRK2 (human)): 100%
kinase still bound, per cent of control (NTRK3 (human)): 100%
kinase still bound, per cent of control (NUAK2 (human)): 94%
kinase still bound, per cent of control (PAK3 (human)): 90%
kinase still bound, per cent of control [2]: 100%
kinase still bound, per cent of control (PLK1 (human)): 5.4%
kinase still bound, per cent of control [3]: 100%
kinase still bound, per cent of control (RPS6KA1 KD2 (human)): 91%
kinase still bound, per cent of control (RPS6KA2 KD1 (human)): 70%
kinase still bound, per cent of control (SIK2 (human)): 100%
kinase still bound, per cent of control (TGFBR2 (human)): 100%
kinase still bound, per cent of control (TLK2 (human)): 80%
kinase still bound, per cent of control [4]: 68%
kinase still bound, per cent of control (TYRO3 (human)): 100%
kinase still bound, per cent of control (ULK1 (human)): 94%
kinase still bound, per cent of control (WEE1 (human)): 98%
Compound: Cc1cnc(-c2cnc(NCCNc3ccc(C#N)cn3)nc2-c2ccc(Cl)cc2Cl)[nH]1

Source: the kinase profiling compilation of Christmann-Franck et al. (2016)
